Test results taken from patent US11000033B2, “Ketone or oxime compound, and herbicide” (NISSAN CHEMICAL CORPORATION, priority 2014, dated 2021).

Key:
Assay type in all cases: in vivo
[1] = tested on: Apera spica-venti; test: Test Example 5: herbicidal effect by foliage application, plastic box (symbol L); settings: 320 g/ha, 3 weeks after application
Summary of the method: (§1)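 Leaf-applied emulsion, water-diluted to a preset herbicide dose, on two-week-old seedlings raised in a 25° C. to 30° C. greenhouse; injury rated at 3 weeks using earlier criteria.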

[2] = tested on: Chenopodium album; test: Test Example 4: herbicidal effect by soil treatment (symbol O); settings: application herbicide amount 320 g/ha
Summary of the method: (§2)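 Seeds were sown in sterilized diluvial soil, covered with about 1.5 cm of soil, and the soil surface was sprayed with a water-diluted emulsion of the compound at a predetermined rate. Plants grew in a greenhouse at 25° C. to 30° C.; effects were scored visually 3 weeks after application.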

[3] = tested on: Echinochloa crus-galli var. crus-galli; test: Test Example 3: herbicidal effect by foliage application, Wagner pot (symbol H); settings: application herbicide amount 320 g/ha
Summary of the method: (§3)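 Post-emergence, paddy-type test: seedlings 14 d old in shallow-flooded (0.1–0.5 cm) alluvial soil, 25–30 °C greenhouse. Emulsion diluted to target rate, sprayed on leaves. Read-out: visual effect on each species at 3 weeks, per set criteria.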

[4] = tested on: transplanted rice plant; test: Test Example 1: effect on crop, application before weed generation in submerged conditions (symbol a); settings: application herbicide amount 320 g/ha
Summary of the method: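 Rice at 2.5 leaf stage transplanted into submerged soil (4 cm depth) sown with three weed species; herbicide applied before weed emergence.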

[5] = tested on: Monochoria vaginalis; test: Test Example 2: herbicidal activity, application during weed generation in submerged conditions (symbol C); settings: Table 23; application herbicide amount 320 g/ha; grade 0-5 by criteria of Test Example 1
Summary of the method: (§4)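 Steps: fill pots with alluvial soil; add water to 4 cm depth; co-sow the three weeds; grow at 25° C. to 30° C. under glass; at 1–2 leaves, dose the floodwater with diluted emulsion; rate damage visually after 3 weeks.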

[6] = tested on: Scirpus juncoides; test: Test Example 2: herbicidal activity, application during weed generation in submerged conditions (symbol B); settings: Table 23; application herbicide amount 320 g/ha; grade 0-5 by criteria of Test Example 1
Summary of the method: as §4

[7] = tested on: Apera spica-venti; test: Test Example 4: herbicidal effect by soil treatment (symbol L); settings: application herbicide amount 320 g/ha
Summary of the method: as §2

[8] = tested on: directly sowed rice plant; test: Test Example 3: effect on crop by foliage application, Wagner pot (symbol b); settings: application herbicide amount 320 g/ha
Summary of the method: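 Plants are raised from seed in flooded paddy conditions: water stands 0.1–0.5 cm over alluvial soil, and the pot is kept in a greenhouse at 25–30 °C. Species sown are barnyardgrass (E. crus-galli var. crus-galli), Leptochloa chinensis, Cyperus difformis and rice.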

[9] = tested on: Stellaria media; test: Test Example 5: herbicidal effect by foliage application, plastic box (symbol P); settings: 320 g/ha, 3 weeks after application
Summary of the method: as §1

[10] = tested on: Leptochloa chinensis; test: Test Example 3: herbicidal effect by foliage application, Wagner pot (symbol D); settings: application herbicide amount 320 g/ha
Summary of the method: as §3

[11] = tested on: Abutilon theophrasti; test: Test Example 5: herbicidal effect by foliage application, plastic box (symbol M); settings: 320 g/ha, 3 weeks after application
Summary of the method: as §1

[12] = tested on: beet; test: Test Example 4: effect on crop by soil treatment (symbol f); settings: application herbicide amount 320 g/ha
Summary of the method: (§5)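 Soil-treatment setup: crop and weed seeds were spot-sown into sterilized diluvial soil, then buried beneath approximately 1.5 cm of it, and the boxes were housed in a 25–30° C. greenhouse.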

[13] = tested on: Chenopodium album; test: Test Example 5: herbicidal effect by foliage application, plastic box (symbol O); settings: 320 g/ha, 3 weeks after application
Summary of the method: as §1

[14] = tested on: Cyperus difformis; test: Test Example 3: herbicidal effect by foliage application, Wagner pot (symbol E); settings: application herbicide amount 320 g/ha
Summary of the method: as §3

[15] = tested on: Echinochloa crus-galli var. crus-galli; test: Test Example 4: herbicidal effect by soil treatment (symbol H); settings: application herbicide amount 320 g/ha
Summary of the method: as §2

[16] = tested on: rapeseed; test: Test Example 4: effect on crop by soil treatment (symbol g); settings: application herbicide amount 320 g/ha
Summary of the method: as §5

| SMILES | O: Chenopodium album, herbicidal effect grade [2] | herbicidal effect on H (Echinochloa crus-galli var. crus-galli), grade 0-5 [3] | Effect grade on crop, a: transplanted rice plant [4] | Herbicidal effect grade, C: Monochoria vaginalis [5] | Herbicidal effect grade, B: Scirpus juncoides [6] | L: Apera spica-venti, herbicidal effect grade [7] | effect on crop b (directly sowed rice plant), grade 0-5 [8] | herbicidal effect on D (Leptochloa chinensis), grade 0-5 [10] | f: beet, effect on crop grade [12] | herbicidal effect on E, grade 0-5 [14] | H: Echinochloa crus-galli var. crus-galli, herbicidal effect grade [15] | g: rapeseed, effect on crop grade [16] | L: Apera spica-venti, herbicidal effect (criteria of Test Example 1) [1] | P: Stellaria media, herbicidal effect (criteria of Test Example 1) [9] | O: Chenopodium album, herbicidal effect (criteria of Test Example 1) [13] | M: Abutilon theophrasti, herbicidal effect (criteria of Test Example 1) [11] | further results |
| --- | --- | --- | --- | --- | --- | --- | --- | --- | --- | --- | --- | --- | --- | --- | --- | --- | --- |
| CON=C(C)CC1CC(O)=C(c2c(C)cc(-c3ccccn3)cc2C)C1=O (mixture of isomers) [6-051] | 0 (Herbicidal ratio of 5% or lower (almost no effect)) | 5 (Herbicidal ratio of 90% or more (almost completely withered)) | 5 (Herbicidal ratio of 90% or more (almost completely withered)) | 2 (Herbicidal ratio of 20% or higher and lower than 40%) | 4 (Herbicidal ratio of 70% or higher and lower than 90%) | 5 (Herbicidal ratio of 90% or more (almost completely withered)) | 5 (Herbicidal ratio of 90% or more (almost completely withered)) | 5 (Herbicidal ratio of 90% or more (almost completely withered)) | 0 (Herbicidal ratio of 5% or lower (almost no effect)) | 5 (Herbicidal ratio of 90% or more (almost completely withered)) | 5 (Herbicidal ratio of 90% or more (almost completely withered)) | 4 (Herbicidal ratio of 70% or higher and lower than 90%) |  |  |  |  | L: Apera spica-venti, herbicidal effect grade [1]: 5 (Herbicidal ratio of 90% or more (almost completely withered)); P: Stellaria media, herbicidal effect grade [9]: 4 (Herbicidal ratio of 70% or higher and lower than 90%); M: Abutilon theophrasti, herbicidal effect grade [11]: 1 (Herbicidal ratio of 5% or higher and lower than 20%); O: Chenopodium album, herbicidal effect grade [13]: 5 (Herbicidal ratio of 90% or more (almost completely withered)) |
| CON=C(C)CC1CC(O)=C(c2c(C)cc(-c3ccc(F)cc3)cc2C)C1=O (mixture of isomers) [6-058] | 5 (Herbicidal ratio of 90% or more (almost completely withered)) | 5 (Herbicidal ratio of 90% or more (almost completely withered)) | 5 (Herbicidal ratio of 90% or more (almost completely withered)) | 5 (Herbicidal ratio of 90% or more (almost completely withered)) | 5 (Herbicidal ratio of 90% or more (almost completely withered)) | 5 (Herbicidal ratio of 90% or more (almost completely withered)) | 5 (Herbicidal ratio of 90% or more (almost completely withered)) | 5 (Herbicidal ratio of 90% or more (almost completely withered)) | 4 (Herbicidal ratio of 70% or higher and lower than 90%) | 5 (Herbicidal ratio of 90% or more (almost completely withered)) | 5 (Herbicidal ratio of 90% or more (almost completely withered)) | 5 (Herbicidal ratio of 90% or more (almost completely withered)) | 5 (Herbicidal ratio of 90% or more (almost completely withered)) | 5 (Herbicidal ratio of 90% or more (almost completely withered)) | 5 (Herbicidal ratio of 90% or more (almost completely withered)) |  |  |
| CON=C(C)CC1CC(OC(=O)SC(C)(C)C)=C(c2c(C)cc(-c3ccc(Cl)cc3)cc2C)C1=O (stereo not shown) [6-082] | 0 (Herbicidal ratio of 5% or lower (almost no effect)) | 5 (Herbicidal ratio of 90% or more (almost completely withered)) | 5 (Herbicidal ratio of 90% or more (almost completely withered)) | 5 (Herbicidal ratio of 90% or more (almost completely withered)) | 3 (Herbicidal ratio of 40% or higher and lower than 70%) | 5 (Herbicidal ratio of 90% or more (almost completely withered)) | 5 (Herbicidal ratio of 90% or more (almost completely withered)) | 5 (Herbicidal ratio of 90% or more (almost completely withered)) | 0 (Herbicidal ratio of 5% or lower (almost no effect)) | 5 (Herbicidal ratio of 90% or more (almost completely withered)) | 5 (Herbicidal ratio of 90% or more (almost completely withered)) | 0 (Herbicidal ratio of 5% or lower (almost no effect)) | 5 (Herbicidal ratio of 90% or more (almost completely withered)) | 1 (Herbicidal ratio of 5% or higher and lower than 20%) |  | 4 (Herbicidal ratio of 70% or higher and lower than 90%) |  |
| CON=C(C)CC1CC(O)=C(c2c(C)cc(-c3cc(F)c(F)c(F)c3)cc2C)C1=O (stereo not shown) [6-104] |  | 5 (Herbicidal ratio of 90% or more (almost completely withered)) | 5 (Herbicidal ratio of 90% or more (almost completely withered)) | 5 (Herbicidal ratio of 90% or more (almost completely withered)) | 5 (Herbicidal ratio of 90% or more (almost completely withered)) |  | 5 (Herbicidal ratio of 90% or more (almost completely withered)) | 5 (Herbicidal ratio of 90% or more (almost completely withered)) |  |  |  |  | 5 (Herbicidal ratio of 90% or more (almost completely withered)) | 4 (Herbicidal ratio of 70% or higher and lower than 90%) | 4 (Herbicidal ratio of 70% or higher and lower than 90%) | 5 (Herbicidal ratio of 90% or more (almost completely withered)) | Herbicidal effect grade, O: Chenopodium album [2]: 4 (Herbicidal ratio of 70% or higher and lower than 90%); Herbicidal effect grade, L: Apera spica-venti [7]: 5 (Herbicidal ratio of 90% or more (almost completely withered)); Effect on crop grade, f: beet [12]: 4 (Herbicidal ratio of 70% or higher and lower than 90%); Herbicidal effect grade, H: Echinochloa crus-galli var. crus-galli [15]: 5 (Herbicidal ratio of 90% or more (almost completely withered)); Effect on crop grade, g: rapeseed [16]: 4 (Herbicidal ratio of 70% or higher and lower than 90%) |
